Test results from patent US9713648B2, “Weekly dosing regimens for anti-CD30 VC-PAB-MMAE antibody drug-conjugates” (Seattle Genetics, Inc., priority 2009, dated 2017).

Legend:
Assay type in all cases: in vivo, human
[1] = Phase 1 weekly dosing study: tolerability, adverse events, MTD/DLT
Description: (§1) A multicenter, phase 1, weekly dosing, dose escalation study was conducted in pts with refractory or relapsed HL or systemicALCL. The cAC10-MC-vc-PAB-MMAE antibody drug conjugate was administered weekly at doses of 0.4-1.4 mg/kg (2-hr IV infusions). Patients with […] or better after two 21-day cycles (6 doses) were eligible to continue treatment with the antibody drug conjugate.
The grade 4 events were neutropenia (1 subject), and hyperglycemia (1). The grade 3 events were neutropenia (3), diarrhea (1), paresthesia (1), vomiting (1), and leucopenia (1). The grade 2 or lower adverse events were nausea (9), fatigue (8), peripheral neuropathy (6), neutropenia (2), dizziness (4), hyperglycemia (3), and paresthesia (3). The dose limiting toxicity was at 1.4 mg/kg.

[2] = system: refractory or relapsed HL or systemicALCL; assay: Phase 1 weekly dosing, dose escalation study: best clinical response, all evaluable patients; conditions: for Best Clinical Response: CR / Best Clinical Response: PD / Best Clinical Response: PR / Best Clinical Response: SD: number of patients
Description: as §1
(§2) Results: In 34 patients, median age was 34 yrs (range 13-82). Patients received a median of 5 prior therapies; 62% received an autologous SCT. MTD was exceeded at 1.4 mg/kg.

HL = assay: Phase 1 weekly dosing study: response rate in HL patients; conditions: weekly 0.4-1.4 mg/kg
Description: as §1, §2

sALCL = assay: Phase 1 weekly dosing study: response rate in sALCL patients; conditions: sALCL patients (4/5), weekly 0.4-1.4 mg/kg
Description: as §1, §2

[3] = Phase 1 weekly dosing study: exposure (AUC); conditions: weekly doses of 0.4-1.4 mg/kg
Description: as §1, §2

[4] = number of subjects among 34 treated patients
[5] = Total of all dose groups 0.4-1.4 mg/kg, N=27
[6] = dose group 0.6 mg/kg weekly, N=3
[7] = dose group 1.0 mg/kg weekly, N=6
[8] = dose group 1.2 mg/kg weekly, N=5
[9] = dose group 1.4 mg/kg weekly, N=3

cAC10-MC-vc-PAB-MMAE: chimeric AC10 antibody conjugated to the drug MMAE through a MC-vc-PAB linker; anti-CD30 antibody-drug conjugate
grade 5 events ([1]; 34 treated patients): no grade 5 events
tolerability ([1]; 34 treated patients): generally well tolerated
grade 2 or lower adverse events: dizziness [1, 4]: 4
grade 2 or lower adverse events: fatigue [1, 4]: 8
grade 2 or lower adverse events: hyperglycemia [1, 4]: 3
grade 2 or lower adverse events: nausea [1, 4]: 9
grade 2 or lower adverse events: neutropenia [1, 4]: 2
grade 2 or lower adverse events: paresthesia [1, 4]: 3
grade 2 or lower adverse events: peripheral neuropathy [1, 4]: 6
grade 3 events: diarrhea [1, 4]: 1
grade 3 events: leucopenia [1, 4]: 1
grade 3 events: neutropenia [1, 4]: 3
grade 3 events: paresthesia [1, 4]: 1
grade 3 events: vomiting [1, 4]: 1
grade 4 events: hyperglycemia [1, 4]: 1
grade 4 events: neutropenia [1, 4]: 1 subject
dose limiting toxicity (dose at which it occurred) ([1]; weekly dosing): 1.4 mg/kg
MTD (exceeded at) ([1]; weekly dosing, 2-hr IV infusions, 34 patients): < 1.4 mg/kg
observed time to response ([2]; 1 mg/kg dose, weekly): approximately 8 wks
Complete Response ([2]; All Patients (10/27), weekly 0.4-1.4 mg/kg): 37% (10/27)
Overall Response Rate (CR + PR) ([2]; All Patients (13/27), weekly 0.4-1.4 mg/kg): 48% (13/27)
Tumor Reductions ([2]; All Patients (22/27), weekly 0.4-1.4 mg/kg): 81% (22/27)
CRs observed ([2]; at higher doses): Multiple
Best Clinical Response: CR [2, 5]: 10 ^
Best Clinical Response: PD [2, 5]: 3
Best Clinical Response: PR [2, 5]: 3
Best Clinical Response: SD [2, 5]: 22
Best Clinical Response: SD ([2]; dose group 0.4 mg/kg weekly, N=4, includes 1 patient with ALCL): 4^+
Best Clinical Response: PD [2, 6]: 1
Best Clinical Response: PR [2, 6]: 1
Best Clinical Response: SD [2, 6]: 1
Best Clinical Response: PD ([2]; dose group 0.8 mg/kg weekly, N=6): 1
Best Clinical Response: SD ([2]; dose group 0.8 mg/kg weekly, N=6, 1 pediatric patient): 1^P
Best Clinical Response: CR ([2]; dose group 0.8 mg/kg weekly, N=6, includes 2 patients with ALCL): 4^++
Best Clinical Response: PR [2, 7]: 1
Best Clinical Response: SD [2, 7]: 1
Best Clinical Response: CR ([2]; dose group 1.0 mg/kg weekly, N=6, includes 2 patients with ALCL): 4^++
Best Clinical Response: PD [2, 8]: 1
Best Clinical Response: PR [2, 8]: 1
Best Clinical Response: SD ([2]; dose group 1.2 mg/kg weekly, N=5, includes 1 pediatric patient): 3^P
Best Clinical Response: CR [2, 9]: 2^
Best Clinical Response: SD [2, 9]: 1
time within which multiple complete responses were observed ([2]; phase I study, weekly regimen): ≤ 8 weeks
Complete Response (HL; HL Patients (6/22)): 27% (6/22)
Overall Response Rate (CR + PR) (HL; HL Patients (9/22)): 41% (9/22)
Complete Response (sALCL): 80% (4/5)
Overall Response Rate (CR + PR) (sALCL): 80% (4/5)
Exposure (AUC) [3]: increased relative to dose level
